Reference: patent US7550425B2, “Diuretic peptide conjugates” (Zealand Pharma A/S, priority 2000, dated 2009)
Where two headings read alike, the source gives them in different places.

Tests used:
[1] = test system: conscious Sprague Dawley rats; type: in vivo, rat; on Behavioral changes: key: 0 indicates a lack of response; (↓) indicates a very weak decrease; ↓ indicates a weak decrease; ↑ indicates a weak increase; ↑↑ indicates a strong increase; on Food intake: key: 0 indicates a lack of response; (↓) indicates a very weak decrease; ↓ indicates a weak decrease; ↑ indicates a weak increase; ↑↑ indicates a strong increase; on UNaV: key: 0 indicates a lack of response; (↓) indicates a very weak decrease; ↓ indicates a weak decrease; ↑ indicates a weak increase; ↑↑ indicates a strong increase
Description: In the conscious rat model, the animal is chronically instrumented with catheters in the urinary bladder, the femoral artery, and the femoral vein. The animal receives a continuous i.v. infusion with isotonic saline, 50 μl/min. Urine is collected in vials in consequtive urine collection periods of 10 min each. After two control periods, the test compound is administered and fractionated urine collections (10 min periods) are continued for at least two hours. Urinary concentrations of sodium and potassium are determined by flame photometry (Instrumentation Laboratory 943) using caesium as internal standard.
The diuretic effect of the peptide conjugates of the invention has been tested in conscious rats, where Compound 1 elicits a powerful and sustained diuretic response. Cardiovascular and renal responses produced by i.v. infusion of nociceptin (Phoenix Pharmaceuticals) and Compound 1 have been studied in conscious Sprague Dawley rats. The results are shown in FIGS. 2 to 8 wherein HR is heart rate, MAP is mean arterial pressure, V is urine flow rate, UNaV is urinary excretion rate of sodium, RSNA is renal sympathetic nerve activity expressed as % of the control level, Cosm is the osmolar clearance, and CH2O is free water clearance.
Furthermore, the effects of i.v. bolus administration of nociceptin (30 and 100 nmol/kg, Phoenix Pharmaceuticals) and nociceptin-NH2 (30 nmol/kg) on heart rate, arterial pressure and RSNA were studied in groups of 6 conscious Sprague-Dawley rats.
[…] After stabilization of urine flow rate and urinary sodium excretion, urine was collected during a 20-min control period. After this, the i.v. bolus injection was given or the i.v. infusate was switched to a solution of isotonic saline containing Compound 1 (i.v. infusion experiments). From the time of drug administration, experimental urine samples (10-min consecutive periods) were taken for 80 min.
One hour prior to the start of each experiment a food pellet (standard rodent chow) was placed within access to the rat though a hole in the rat holder. The number and time of feeding responses (i.e., times in which the rat began to eat the food pellet) was recorded before, and after drug administration. If a positive feeding response was observed, the pellet was removed from the restrainer to prevent feeding-induced alterations in heart rate and/or mean arterial pressure. At 10-min intervals, the food pellet was presented to the rat to determine the duration of the feeding response.

cirrhotic rats = experiment: Renal responses in rats with liver cirrhosis induced by common bile duct ligation and sham-operated controls; type: in vivo, rat; conditions: i.v. bolus 65 nmol/kg
Description: Rats with liver cirrhosis induced by common bile duct ligation develop avid sodium and water retention and ascites within 2-4 weeks. The disturbed sodium and water balance in cirrhotic rats is in agreement with the pivotal clinical findings of edema and ascites in patients with liver cirrhosis. To examine the efficacy of Compound 1 in an experimental model of an edema-forming state, the diuretic response to an acute i.v. bolus injection of Compound 1 (65 nmol/kg) was evaluated in rats with liver cirrhosis induced by common bile duct ligation 4 weeks earlier. Prior to the experiments, rats were instrumented with chronic catheters in the urinary bladder, and in the femoral vein and artery. Renal responses to Compound 1 were compared with responses in sham-operated control rats. […] Relative changes in urine flow rate, sodium and potassium excretion after i.v. administration of 65 nmol/kg in sham-operated control animals are summarized in FIG. 7.
Changes in urine flow rate, free water clearance, fractional sodium excretion and fractional potassium excretion after i.v. administration of 65 nmol/kg in sham-operated control and cirrhotic animals are summarized in FIG. 8.

[2] = test system: chronically instrumented rats; experiment: Twelve-hour i.v. infusion with servo-controlled volume replacement (acute tachyphylaxis); type: in vivo, rat
Description: To evaluate whether acute tachyphylaxis develops during i.v. treatment with Compound 1, an additional series of experiments were performed. Chronically instrumented rats were infused with vehicle (150 mM glucose) or Compound 1 (1 nmol/kg/min) for twelve hours while water balance was maintained using a computer-driven, servo-controlled i.v. volume replacement system^[2]. Acute tachyphylaxis has been observed during repeated i.v. dosing of the vasopressin antagonist SKF 101926 in conscious dogs^[12] and tolerance during chronic treatment has been reported for the selective V2-receptor antagonist OPC-31260 ^[13].

hORL1 receptor = hORL1 receptor (Homo sapiens, UniProt P41146); experiment: Inhibition of forskoline-induced cAMP formation in HEK293 cells expressing human ORL1; type: cell-based; parameters: expressed in transfected cells; host or cells: HEK293; conditions: transfected HEK293 cells
[3] = I.v. bolus injection 30 nmol/kg
[4] = I.v. infusion 0.1 nmol/kg/min (n = 6)
[5] = I.v. infusion 1.0 nmol/kg/min (n = 6)
[6] = I.v. infusion 10 nmol/kg/min (n = 6)
[7] = i.v. infusion 1 and 0.1 nmol/kg/min, FIG. 3
[8] = cirrhotic and sham-operated rats

hORL1 receptor, sequence (P41146 whole entry): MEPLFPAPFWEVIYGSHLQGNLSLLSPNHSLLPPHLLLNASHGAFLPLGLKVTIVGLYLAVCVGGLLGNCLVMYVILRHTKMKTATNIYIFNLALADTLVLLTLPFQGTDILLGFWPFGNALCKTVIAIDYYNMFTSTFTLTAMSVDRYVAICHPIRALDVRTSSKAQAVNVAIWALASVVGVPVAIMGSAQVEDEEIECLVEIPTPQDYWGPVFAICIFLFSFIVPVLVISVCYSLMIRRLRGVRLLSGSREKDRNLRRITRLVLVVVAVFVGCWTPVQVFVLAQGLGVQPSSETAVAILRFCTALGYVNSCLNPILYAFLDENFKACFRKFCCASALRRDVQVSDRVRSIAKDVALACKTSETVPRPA

“Ac-RYYRWKKKKKKK-NH2 [Compound 1, Ac-RYYRWKKKKKKK-NH2]” was tested, and the “Δ Blood Pressure (%)” value ([1]; I.v. bolus 10 nmol/kg (n = 6)) was −4 ± 1%, the “Δ K excretion (%)” value ([1]; I.v. bolus 10 nmol/kg (n = 6)) was −35 ± 4% and the “Δ Na excretion (%)” value ([1]; I.v. bolus 10 nmol/kg (n = 6)) was −44 ± 3%. For the same substance, the “Δ Urine Flow (%)” value ([1]; I.v. bolus 10 nmol/kg (n = 6)) was “+83 ± 42%”, the “Δ Blood Pressure (%)” value ([1]; I.v. bolus 30 nmol/kg (n = 4)) was −8 ± 2% and the “Δ K excretion (%)” value ([1]; I.v. bolus 30 nmol/kg (n = 4)) was −20 ± 7%. The “Δ Na excretion (%)” value ([1]; I.v. bolus 30 nmol/kg (n = 4)) was −51 ± 7%, the “Δ Urine Flow (%)” value ([1]; I.v. bolus 30 nmol/kg (n = 4)) was “+207 ± 11%” and the “Δ Blood Pressure (%)” value ([1]; I.v. bolus 100 nmol/kg (n = 6)) was −12 ± 2%. The “Δ K excretion (%)” value ([1]; I.v. bolus 100 nmol/kg (n = 6)) was −52 ± 5%, the “Δ Na excretion (%)” value ([1]; I.v. bolus 100 nmol/kg (n = 6)) was −70 ± 2% and the “Δ Urine Flow (%)” value ([1]; I.v. bolus 100 nmol/kg (n = 6)) was “+249 ± 60%”. The “Δ Blood Pressure (%)” value ([1]; I.v. bolus 300 nmol/kg (n = 4)) was −15 ± 3%, the “Δ K excretion (%)” value ([1]; I.v. bolus 300 nmol/kg (n = 4)) was −79 ± 6% and the “Δ Na excretion (%)” value ([1]; I.v. bolus 300 nmol/kg (n = 4)) was −85 ± 6%. The “Δ Urine Flow (%)” value ([1]; I.v. bolus 300 nmol/kg (n = 4)) was “+127 ± 47%”, the Behavioral changes [1, 3] was 0 and the Food intake [1, 3] was 0. It also gave an HR [1, 3] of 0, an MAP [1, 3] of 0 and a Behavioral changes ([1]; I.v. infusion 0.1 nmol/kg/min) of 0. It also gave a Food intake ([1]; I.v. infusion 0.1 nmol/kg/min) of 0, an HR ([1]; I.v. infusion 0.1 nmol/kg/min) of 0 and a UNaV ([1]; I.v. infusion 0.1 nmol/kg/min) of 0. The “Δ Blood Pressure (%)” value [1, 4] was −5 ± 4%, the “Δ K excretion (%)” value [1, 4] was −16 ± 6% and the “Δ Na excretion (%)” value [1, 4] was −5 ± 3%. For the same substance, the “Δ Urine Flow (%)” value [1, 4] was “+99 ± 21%”, the Behavioral changes ([1]; I.v. infusion 1.0 nmol/kg/min) was 0 and the Food intake ([1]; I.v. infusion 1.0 nmol/kg/min) was 0. The HR ([1]; I.v. infusion 1.0 nmol/kg/min) was 0, the “Δ Blood Pressure (%)” value [1, 5] was −10 ± 2% and the “Δ K excretion (%)” value [1, 5] was −51 ± 9%. The “Δ Na excretion (%)” value [1, 5] was −64 ± 7%, the “Δ Urine Flow (%)” value [1, 5] was 210 ± 51% and the “Δ Blood Pressure (%)” value [1, 6] was −15 ± 3%. For the same substance, the “Δ K excretion (%)” value [1, 6] was −68 ± 15%, the “Δ Na excretion (%)” value [1, 6] was −79 ± 6% and the “Δ Urine Flow (%)” value [1, 6] was 160 ± 68%. The “bradycardia and hypotension to an i.v. bolus injection of nociceptin” value ([1]; after 120 min of i.v. infusion 1 nmol/kg/min, n=6) was “completely blocked”, the water diuretic response ([1]; continuous i.v. infusion 1 and 10 nmol/kg/min) was “selective water diuretic response” and the “heart rate, arterial pressure and RSNA” value ([1]; i.v. bolus 30 nmol/kg) was “did not produce any changes in heart rate, blood pressure or RSNA”. The “stimulation of appetite or behavioral changes” value ([1]; i.v. bolus 30 nmol/kg) was “do not show any signs of stimulation of appetite or behavioral changes”, the “diuretic (V) and antinatriuretic (UNaV) response” value ([1]; i.v. bolus 30 nmol/kg, data not shown) was “marked diuretic (V) and antinatriuretic (UNaV) response” and the “appetite, sedation, behavioral changes” value ([1]; i.v. infusion 1 and 0.1 nmol/kg/min) was “no signs of increased appetite, sedation, or behavioral changes”. For the same substance, the HR response [1, 7] was “little effect on HR”, the MAP response [1, 7] was “slight, but significant reduction in MAP” and the “diuretic (V) and antinatriuretic (UNaV) responses” value [1, 7] was “significant diuretic (V μl/min) and antinatriuretic responses”. For the same substance, the “fold more potent than nociceptin in producing similar magnitude diuretic and antinatriuretic responses” value ([1]; i.v. infusion, FIGS. 5 and 6) was “approximately 10 fold”, the “duration of the diuretic effect” value ([1]; i.v. infusion, compared with nociceptin) was “tended to persist for a greater duration than that of i.v. nociceptin infusion” and the “renal responses, cirrhotic versus control rats” value (cirrhotic rats) was “renal responses were similar in cirrhotic and control rats”. For the same substance, the “fractional excretion of sodium and potassium” value (cirrhotic rats; FIG. 8) was “decrease in fractional excretion of sodium and potassium”, the urine flow rate (cirrhotic rats; FIG. 8) was “marked increase in urine flow rate” and the glomerular filtration rate (cirrhotic rats; [8]) was “absence of changes in the glomerular filtration rate”. The “urinary excretion of sodium and potassium” value (cirrhotic rats; [8]) was “decrease in urinary excretion of sodium and potassium”, the “tubular water reabsorption and haemodynamics” value ([2]; i.v. infusion 1 nmol/kg/min) was “inhibited tubular water reabsorption without concomitant changes in arterial blood pressure, heart rate, renal blood flow, glomerular filtration rate or proximal tubular reabsorption” and the “duration of aquaretic response” value ([2]; i.v. infusion 1 nmol/kg/min for twelve hours) was “sustained aquaretic response lasting the entire 12-hour infusion period”. For the same substance, the acute tachyphylaxis ([2]; i.v. infusion 1 nmol/kg/min, 12 hours) was “no acute tachyphylaxis develops within the first 12 hours of treatment”, the “magnitude of aquaretic response versus OPC-31260” value ([2]; i.v. infusion 1 nmol/kg/min, FIG. 9) was “aquaretic response of similar magnitude to the response seen with maximal doses of the selective vasopressin type-2 receptor antagonist OPC-31260” and the “relative maximum relative to nociceptin” value (hORL1 receptor) was 92%.
